In patent publication US6605634B2 (Amgen, Inc., priority 1996, dated 2003):

Tested on: production of tumor necrosis factor (TNF) by monocytes activated with bacterial lipopolysaccharide (LPS)
Assay: Lipopolysaccharide-activated Monocyte TNF Production Assay
Format: cell-based
Conditions: Homo sapiens, TNF in culture supernatants by ELISA, read-out: IC50 (concentration of test compounds causing a 50% reduction in TNF production)
Description: Lipopolysaccharide-activated Monocyte TNF Production Assay
Test compounds were evaluated in vitro for the ability to inhibit the production of tumor necrosis factor (TNF) by monocytes activated with bacterial lipopolysaccharide (LPS). Fresh residual source leukocytes (a byproduct of plateletpheresis) were obtained from the local blood bank and peripheral blood mononuclear cells (PBMCs) were isolated by density gradient centrifugation on Ficol-Paque Plus (Pharmacia). PBMCs were suspended at 2×10^6/ml in DMEM supplemented to contain 2% FCS (10 mM), 0.3 mg/ml glutamate, 100 U/ml penicillin G and […] streptomycin sulfate (complete media). Cells were plated into Falcon flatbottom 96 well culture plates (200 μl/well) and cultured overnight at 37° C. and 6% CO2. Nonadherent cells were removed by washing with 200 μl/well of fresh medium. Wells containing adherent cells (˜70% monocytes) were replenished with 100 μl of fresh medium.
Preparation of Test Compound Stock Solutions
Test compounds were dissolved in […]. Compound stock solutions were prepared to an initial concentration of […]. Stocks were diluted initially to 20-200 μM in complete media. Nine two-fold serial dilutions of each compound were then prepared in complete medium.
Treatment of Cells with Test Compounds and Activation of TNF Production with Lipopolysaccharide
One hundred microliters of each test compound dilution were added to microtiter wells containing adherent monocytes and 100 μl complete medium. Monocytes were cultured with test compounds for 60 min at which time 25 μl of complete medium containing 30 ng/ml lipopolysaccharide from E. coli K532 were added to each well. Cells were cultured an additional 4 hrs. Culture supernatants were then removed and TNF present in the supernatants was quantified using an ELISA.
Flat bottom 96 well Coming High Binding ELISA plates were coated overnight (4° C.) with 150 μL/well of 3 μg/ml murine anti-human TNFa MAb (R&D Systems #MAB210). Wells were then blocked 1 h at room temperature with 200 μL/well of CaCl2-free ELISA buffer supplemented to contain 20 mg/ml BSA (standard ELISA buffer: […], 150 mM NaCl, 2 mM CaCl2, 0.15 mM thimerosal, pH 7.4). Plates were washed and replenished with 100 μl of test supernatants (diluted 1:3) or standards. Standards consisted of eleven 1.5-fold serial dilutions from a stock of 1 ng/ml recombinant human TNF (R&D Systems). Plates were incubated at room temperature for 1 h on orbital shaker (300 rpm), washed and replenished with 100 μl/well of 0.5 jig/ml goat anti-human TNFa (R&D systems #AB-210-NA) biotinylated at a 4:1 ratio. Plates were incubate for 40 min, washed and replenished with 100 μl/well of alkaline phosphatase-conjugated streptavidin (Jackson ImmunoResearch #016-050-084) at 0.02 μg/ml. Plates were incubated 30 min, washed and replenished with 200 μl well of 1 mg/ml of p-nitrophenyl phosphate. After 30 min, plates were read at 405 nm on a Vmax plate reader.
Standard curve data were fit to a second order polynomial and unknown TNF-a concentrations determined from their OD by solving this equation for concentration. TNF concentrations were then plotted Vs test compound concentration using a second order polynomial. This equation was then used to calculate the concentration of test compounds causing a 50% reduction in TNF production.

SMILES | IC50 [µM]
N[C@@H](CCc1ccccc1)C(=O)Nc1ccc2c(-c3ccncc3)c(-c3ccc(F)cc3)[nH]c2n1 [Compound 139, 6-(4′-phenyl-1′-oxo-2′-(L)-aminobutylamino)-3-(4-pyridyl)-2-(4-fluorophenyl)-7-aza-indole] | < 20
N[C@H](CCc1ccccc1)C(=O)Nc1ccc2c(-c3ccncc3)c(-c3ccc(F)cc3)[nH]c2n1 [Compound 141, 6-(4′-phenyl-1′-oxo-2′-(D)-aminobutylamino)-3-(4-pyridyl)-2-(4-fluorophenyl)-7-aza-indole] | < 20
CC(C)COC(=O)n1c(-c2ccc(F)cc2)c(-c2ccncc2)c2ccc(NC(=O)CN)nc21 [Compound 143, 6-(2′-amino-1′-oxo-ethylamino)-3-(4-pyridyl)-2-(4-fluorophenyl)-1-isobutoxycarbonyl-7-aza-indole] | < 20
CC(C)(C)CNc1ccc2c(-c3ccncc3)c(-c3ccc(F)cc3)[nH]c2n1 [Compound 151, 6-(2′,2′-dimethylpropylamino)-3-(4-pyridyl)-2-(4-fluorophenyl)-7-aza-indole] | < 20
CC(C)CCNc1ccc2c(-c3ccncc3)c(-c3ccc(F)cc3)[nH]c2n1 [Compound 152, 6-(isoamylamino)-3-(4-pyridyl)-2-(4-fluorophenyl)-7-aza-indole] | < 20
CCC(CC)CNc1ccc2c(-c3ccncc3)c(-c3ccc(F)cc3)[nH]c2n1 [Compound 153, 6-(2′-ethylbutylamino)-3-(4-pyridyl)-2-(4-fluorophenyl)-7-aza-indole] | < 20
Fc1ccc(-c2[nH]c3nc(NCc4cccs4)ccc3c2-c2ccncc2)cc1 [Compound 154, 6-(2′-thienylmethylamino)-3-(4-pyridyl)-2-(4-fluorophenyl)-7-aza-indole] | < 20
CCNc1ccc2c(-c3ccncc3)c(-c3ccc(F)cc3)[nH]c2n1 [Compound 156, 6-(ethylamino)-3-(4-pyridyl)-2-(4-fluorophenyl)-7-aza-indole] | < 20
Cn1c(-c2ccc(F)cc2)c(-c2ccncc2)c2ccc(NC(=O)CN)nc21 [Compound 158, 6(2′-amino-1′-oxo-ethylamino)-3-(4-pyridyl)-2-(4-fluorophenyl)-1-methyl-7-aza-indole] | < 20
